# Structures can show the parent of a compound that is named as a salt.
# Molecular target: T1, human A3AR (Homo sapiens, UniProt P0DMS8)
# T1 construct: expressed in transfected cells
# T1 sequence (P0DMS8 1-318): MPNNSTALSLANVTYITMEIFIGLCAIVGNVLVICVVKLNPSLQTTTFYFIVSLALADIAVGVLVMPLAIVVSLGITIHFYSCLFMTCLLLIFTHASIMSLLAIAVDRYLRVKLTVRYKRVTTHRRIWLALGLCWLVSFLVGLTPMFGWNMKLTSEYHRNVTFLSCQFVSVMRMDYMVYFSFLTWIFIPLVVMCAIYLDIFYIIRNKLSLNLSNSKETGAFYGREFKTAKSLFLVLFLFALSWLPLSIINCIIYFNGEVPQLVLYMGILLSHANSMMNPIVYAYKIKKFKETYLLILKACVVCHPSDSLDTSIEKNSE
# Assay: LOPAC library primary screen: single concentration (10 μM) inhibition of 25 nM CA200645 binding, PHERAstar FS
# Details: not given
SMILES,% 25 nM CA200645 binding [%],% Total CA200645 binding [%]
CC(C)Cc1ccc([C@H](C)C(=O)O)cc1 [S(+)-Ibuprofen],107.7 ± 17.0,
CC(C)NC[C@@H](O)c1ccc(O)c(O)c1.O=C(O)C(O)C(O)C(=O)O [S(+)-Isoproterenol (+)-bitartrate],101.2 ± 2.4,
CC(C)NCC(O)COc1cccc2[nH]ccc12 (stereo not drawn) [S(-)-Pindolol],98.0 ± 8.4,
CC(C)(C)NC[C@H](O)COc1nsnc1N1CCOCC1.O=C(O)/C=C\C(=O)O [S(-)-Timolol maleate],103.3 ± 4.5,
Brc1ccc([C@H]2CN3CCSC3=N2)cc1.O=C(O)C(=O)O [S(-)-p-Bromotetramisole oxalate],68.6 ± 44.8,
Nc1nc(SCc2ccc([N+](=O)[O-])cc2)c2ncn([C@@H]3O[C@H](CO)[C@@H](O)[C@H]3O)c2n1 [S-(4-Nitrobenzyl)-6-thioguanosine],91.9 ± 3.2,
O=[N+]([O-])c1ccc(CSc2ncnc3c2ncn3[C@@H]2O[C@H](CO)[C@@H](O)[C@H]2O)cc1 [S-(4-Nitrobenzyl)-6-thioinosine],95.1 ± 33.3,
CNCC[C@H](Oc1ccc(C(F)(F)F)cc1)c1ccccc1.Cl [S-(+)-Fluoxetine hydrochloride],102.0 ± 9.9,
C[C@@](Cc1ccc(O)c(O)c1)(NN)C(=O)O [S-(-)-Carbidopa],101.3 ± 7.8,
CCc1cc(Cl)c(O)c(C(=O)NC[C@@H]2CCCN2CC)c1OC.Cl [S-(-)-Eticlopride hydrochloride],96.8 ± 1.1,
[N-]=[N+]=Nc1ccc(C(=O)CSC[C@H](NC(=O)CC[C@H](N)C(=O)O)C(=O)NCC(=O)O)cc1 [S-(p-Azidophenacyl)glutathione],82.4 ± 8.6,
Br.CCSC(=N)N [S-Ethylisothiourea hydrobromide],91.5 ± 10.5,
CSC(=N)N.CSC(=N)N.O=S(=O)(O)O [S-Methylisothiourea hemisulfate],112.2 ± 21.2,
Cc1nn(-c2ccccc2)c(C)c1/C=N/N1CCN(Cc2ccccc2)CC1 [SANT-1],82.1 ± 15.9,
Cl.Cn1ccc2cc(NC(=O)Nc3cccnc3)ccc21 [SB 200646 hydrochloride],81.7 ± 19.9,
Oc1ccc(-c2nc(-c3ccncc3)c(-c3ccc(F)cc3)[nH]2)cc1 [SB 202190],68.5 ± 12.1,
Cc1cc(NC(=O)Nc2ccc3c(ccn3C)c2)sn1 [SB 204741],88.1 ± 14.4,
CC#CCOC(=O)c1c(C)nc2sc3c(c2c1N)CCC(O)C3 (centres unmarked) [SB 205384],95.1 ± 6.2,
Cn1ccc2cc3c(cc21)CCN3C(=O)Nc1cccnc1 [SB 206553 hydrochloride],60.7 ± 9.3,
Cn1cc(C2=C(c3ccc(Cl)cc3Cl)C(=O)NC2=O)c2ccccc21 [SB 216763],94.5 ± 10.2,
COC(=O)[C@H](NC(=O)c1cc(-c2ccccc2)nc2ccccc12)c1ccccc1 [SB 218795],51.1 ± 8.4,
CC[C@H](NC(=O)c1c(C)c(-c2ccccc2)nc2ccccc12)c1ccccc1 [SB 222200],76.8 ± 5.5,
Cc1cc2c(cc1Cl)N(C(=O)Nc1ccc(Oc3cccnc3C)nc1)CC2.Cl.Cl.O [SB 242084 dihydrochloride hydrate],49.6± 12.4,

SMILES,% 25 nM CA200645 binding [%],% Total CA200645 binding [%]
CC1CCN(CC[C@H]2CCCN2S(=O)(=O)c2cccc(O)c2)CC1.Cl [SB 269970 hydrochloride],93.6 ± 22.9,
Cc1cc2c(cc1Cl)N(C(=O)Nc1cccc3ncccc13)CC2 [SB-215505],98.1 ± 14.8,
COc1cccc(NC(=O)/C=C/c2ccc(Cl)cc2)c1 [SB-366791],92.0 ± 7.1,
Cc1cccc(-c2[nH]c(C(C)(C)C)nc2-c2ccc3nccnc3c2)n1 [SB-525334],76.3 ± 9.5,
CC(=O)NNC(=O)N1Cc2ccccc2Oc2ccc(Cl)cc21 [SC 19220],105.0 ± 9.4,
NS(=O)(=O)c1ccc(-n2nc(C(F)(F)F)cc2-c2ccc(Cl)cc2)cc1 [SC-236],90.8 ± 15.2,
O=C(CCSCc1ccco1)NNC(=O)N1Cc2ccccc2Oc2ccc(Cl)cc21 [SC-51322],86.9 ± 5.7,
CN(CCCOc1ccc(Cc2ccccc2)cc1)CCC(=O)O.Cl [SC-57461A],83.2 ± 13.1,
"Nc1nc2c(cnn2CCc2ccccc2)c2nc(-c3ccco3)nn12 [SCH 58261, reference compound]",52.5 ± 9.7,52.2 ± 5.4
Cc1nc2c(OCc3ccccc3)cccn2c1CC#N [SCH-28080],97.5 ± 14.8,
Br.CN=c1nc(-c2ccccc2)n(-c2ccccc2)s1 [SCH-202676 hydrobromide],83.4 ± 13.1,
NC(=O)c1ccc2[nH]ccc2c1 [SD-169],96.7 ± 5.5,
"CCN(CC)CCOC(=O)c1cc(Cl)c(N)cc1OC.Cl [SDZ-205,557 hydrochloride]",87.0 ± 9.3,
Cc1ccc(O)c(N=Nc2ccccc2)n1 [SIB 1757],98.5 ± 4.5,
Cc1cccc(/C=C/c2ccccc2)n1 [SIB 1893],88.4 ± 9.6,
CCOC(=O)C(C)Oc1cccc2c(=O)n(CC(=O)Nc3ccc4c(c3)OCCO4)ccc12 (centres unmarked) [SID7969543],94.8 ± 24.3,
Br.Cc1cccc(C2CN(C)CCc3c2cc(O)c(O)c3Cl)c1 (centres unmarked) [SKF 83959 hydrobromide],97.9 ± 6.2,
CN1CCc2cccc(Cl)c2CC1 [SKF 86466],103.0 ± 12.5,
O=C(O)/C=C\C(=O)O.O=C(O)/C=C\C(=O)O.c1cc(CN2CCCCC2)cc(OCCCNc2nc3ccccc3s2)c1 [SKF 95282 dimaleate],120.1 ± 40.0,
CCCC(C(=O)OCCN(CC)CC)(c1ccccc1)c1ccccc1.Cl [SKF-525A hydrochloride],95.3 ± 9.0,
Br.CN1Cc2sccc2C(c2ccc(O)c(O)c2)C1 (centres unmarked) [SKF-89145 hydrobromide],97.3 ± 9.6,
C=CCNc1ncnc2ccc(Br)cc12 [SMER28],86.4 ± 8.7,

# Same assay, conditions: % of control wells (1% DMSO and 25 nM CA200645); compounds at 10 µM; whole live cells expressing A3AR; mean ± SD, three experiments in duplicate
row,SMILES,% 25 nM CA200645 binding [%]
1,CS(=O)(=O)c1ccc(-n2nc(C(F)(F)F)cc2-c2ccc(F)cc2)cc1 [SC-58125],96.5 ± 13.6

# Same assay, conditions: % of control wells (1% DMSO and 25 nM CA200645); compounds at 10 µM; whole live cells expressing the A3AR; mean ± SD, three experiments in duplicate
row,SMILES,% 25 nM CA200645 binding [%]
1,COc1ccc(CCCOC(Cn2ccnc2)c2ccc(OC)cc2)cc1 (centres unmarked) [SKF 96365],100.0 ± 16.7

# Same assay, conditions: compounds tested at 10 µM; % of control wells (1% DMSO and 25 nM CA200645); […]; mean ± SD, three experiments in duplicate
row,SMILES,% 25 nM CA200645 binding [%]
1,Cl.O=C(O)C1CCCN(CCC=C(c2ccccc2)c2ccccc2)C1 (centres unmarked) [SKF 89976A hydrochloride],95.9 ± 25.1

# Same assay, conditions: compounds tested at 10 µM; % of control wells (1% DMSO and 25 nM CA200645); whole live cells expressing the A3AR; mean ± SD, three experiments in duplicate
row,SMILES,% 25 nM CA200645 binding [%]
1,CSC(N)=NCCC[C@H](N)C(=O)O [S-Methyl-L-thiocitrulline acetate],102.0 ± 13.0
